Reference: ChEMBL document CHEMBL1201862, “PubChem BioAssay data set” (2004)
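Each compound was tested at five concentrations against cells in 96-well plates for 48 hours. Abbreviation: GI50, concentration required for 50% inhibition of growth.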 The source made the active and inactive calls. Cut-off read from the data, not from the text of the source: active = GI50 up to about 1.1 µM and inactive = higher.

What was measured:
Test in all cases: NCI tumour cell line growth inhibition, 48 h
[1] = system: HL-60
[2] = system: ACHN
[3] = system: SW-620
[4] = system: NCI-H522
[5] = system: SK-MEL-5
[6] = system: HCT-15
[7] = system: UO-31
[8] = system: EKVX
[9] = system: HT-29
[10] = system: RPMI-8226
[11] = system: MCF7
[12] = system: SF-268
[13] = system: PC-3
[14] = system: BT-549
[15] = system: NCI-H460
[16] = system: RXF 393
[17] = system: MOLT-4
[18] = system: Malme-3M
[19] = system: HCC 2998
[20] = system: A498

Compound	GI50 [1]	GI50 [2]	GI50 [3]	GI50 [4]	GI50 [5]	GI50 [6]	GI50 [7]	GI50 [8]	GI50 [9]	GI50 [10]	GI50 [11]	GI50 [12]	GI50 [13]	GI50 [14]	GI50 [15]	GI50 [16]	GI50 [17]	GI50 [18]	GI50 [19]	GI50 [20]
COc1ccc(CNc2nc(NC3CCCCC3)nc(NC3CCCCC3)n2)cc1	4.88 µM (inactive)	5.35 µM (inactive)	4.19 µM (inactive)	4.31 µM (inactive)	3.56 µM (inactive)	2.13 µM	3.57 µM (inactive)	4.78 µM (inactive)	2.61 µM (inactive)	2.66 µM (inactive)	3.78 µM (inactive)	6.46 µM (inactive)	5.15 µM (inactive)	8.53 µM (inactive)	3.44 µM (inactive)	3.09 µM (inactive)	4.25 µM (inactive)	9.25 µM (inactive)		
CC(C)(C)C(=O)C(c1ccc(-c2cscn2)cc1)c1ccc(-c2cscn2)cc1	> 100 µM (inactive)	32 µM (inactive)	> 100 µM (inactive)	22.8 µM (inactive)	38.1 µM (inactive)	> 95.1 µM	44.4 µM (inactive)	33.3 µM (inactive)	72.3 µM (inactive)	32.1 µM (inactive)		25.5 µM (inactive)			40.5 µM (inactive)	18.8 µM (inactive)	> 100 µM (inactive)	> 56.4 µM (inactive)	> 100 µM (inactive)	21.9 µM (inactive)
CC(=O)OC(C(=O)NNC(=O)OC(C)(C)C)c1ccccc1 (stereo not given)		> 100 µM (inactive)	> 100 µM (inactive)	> 100 µM (inactive)	> 100 µM (inactive)	> 100 µM	> 100 µM (inactive)	> 100 µM (inactive)	> 100 µM (inactive)	> 100 µM (inactive)	> 100 µM (inactive)	> 100 µM (inactive)	> 100 µM (inactive)	> 100 µM (inactive)	> 100 µM (inactive)	> 100 µM (inactive)	> 100 µM (inactive)	> 100 µM (inactive)	> 100 µM (inactive)	
COc1ccc(N(C(=O)NCCO)c2ccccc2)cc1	> 100 µM (inactive)	> 100 µM (inactive)	> 100 µM (inactive)	> 100 µM (inactive)	> 100 µM (inactive)	> 100 µM	> 100 µM (inactive)	> 100 µM (inactive)	> 100 µM (inactive)	> 100 µM (inactive)	> 100 µM (inactive)	> 100 µM (inactive)	> 100 µM (inactive)		> 100 µM (inactive)	> 100 µM (inactive)	> 100 µM (inactive)	> 100 µM (inactive)	> 100 µM (inactive)	> 100 µM (inactive)
COc1cc2c(cc1OC)C1c3ccccc3CCN1CC2 (stereo not given)	30.4 µM (inactive)	> 100 µM (inactive)	63.2 µM (inactive)	> 100 µM (inactive)	81.1 µM (inactive)	> 100 µM		> 100 µM (inactive)	28.5 µM (inactive)		> 100 µM (inactive)	> 100 µM (inactive)	> 100 µM (inactive)		94.4 µM (inactive)	> 100 µM (inactive)	78.3 µM (inactive)	> 100 µM (inactive)	43.6 µM (inactive)	> 100 µM (inactive)
Cc1ccc(S(=O)(=O)OC2C(C3COC(C)(C)O3)OC3OC(C)(C)OC32)cc1 (stereo not given)		> 100 µM (inactive)	> 100 µM (inactive)	> 100 µM (inactive)	> 100 µM (inactive)	> 100 µM	> 100 µM (inactive)	> 100 µM (inactive)	> 100 µM (inactive)			> 100 µM (inactive)	> 100 µM (inactive)	> 100 µM (inactive)	> 100 µM (inactive)	> 100 µM (inactive)	> 100 µM (inactive)	> 100 µM (inactive)	> 100 µM (inactive)	> 100 µM (inactive)
COC(=O)C1(O)c2ccccc2N=C2C1CCN2C (stereo not given)	> 100 µM (inactive)	> 100 µM (inactive)	> 100 µM (inactive)	> 100 µM (inactive)	> 100 µM (inactive)	> 100 µM	> 100 µM (inactive)	> 100 µM (inactive)	> 100 µM (inactive)	> 100 µM (inactive)		> 100 µM (inactive)			> 100 µM (inactive)	> 100 µM (inactive)	> 100 µM (inactive)	> 100 µM (inactive)	> 100 µM (inactive)	> 100 µM (inactive)
CCOC(=O)N1C=CC(=C2C(=C3C=CN(C(=O)OCC)C=C3)C(=C3C=CN(C(=O)OCC)C=C3)C2=C2C=CN(C(=O)OCC)C=C2)C=C1	33 µM (inactive)	2.98 µM (inactive)	17 µM (inactive)	19.1 µM (inactive)	26.5 µM (inactive)	12.4 µM	12.9 µM (inactive)	48.5 µM (inactive)	22.2 µM (inactive)		35.6 µM (inactive)	31.5 µM (inactive)	17.1 µM (inactive)	40.5 µM (inactive)	22.9 µM (inactive)	51.5 µM (inactive)	16.9 µM (inactive)	13.5 µM (inactive)		
